Results: ChEMBL document CHEMBL6114991, “Design, synthesis, and biological evaluation of novel quinoline carboxylic acid based styryl/alkyne hybrid molecule as a potent anti-adipogenic and antidyslipidemic agent via activation of Wnt/β-catenin pathway” (Eur J Med Chem, 2025)
Calls of active or inactive are those of the source. The calls are words filed in the database; no cut-off is given here.

Legend:
3T3-L1 [1] = experiment: Anti-adipogenic activity in mouse 3T3-L1 cells at 20 uM relative to control; type: functional; settings: time 72 hrs
3T3-L1 [2] = experiment: Anti-adipogenic activity in mouse 3T3-L1 cells assessed as suppression of adipogenesis at 20 uM measured for 72 hrs by oil red O staining based analysis; type: functional
3T3-L1 [3] = experiment: Cytotoxicity against mouse 3T3-L1 cells assessed as cell viability at 20 uM incubated for 48 hrs by MTT assay; type: toxicity, cell-based; settings: 3t3-l1, 48 h
3T3-L1 [4] = experiment: Cytotoxicity against mouse 3T3-L1 cells assessed as cell viability upto 50 uM incubated for 48 hrs by MTT assay; type: toxicity, cell-based; settings: 3t3-l1, 48 h
3T3-L1 [5] = experiment: Cytotoxicity against mouse 3T3-L1 cells assessed as cell viability upto 100 uM incubated for 48 hrs by MTT assay; type: toxicity, cell-based; settings: 3t3-l1, 48 h
3T3-L1 [6] = experiment: Anti-adipogenic activity in mouse 3T3-L1 cells assessed as suppression of adipogenesis at 1 uM by oil red O staining based analysis; type: functional, cell-based
3T3-L1 [7] = experiment: Anti-adipogenic activity in mouse 3T3-L1 cells assessed as reduction in lipid accumulation at 10 uM; type: functional
3T3-L1 [8] = experiment: Anti-adipogenic activity in mouse 3T3-L1 cells assessed as reduction in lipid accumulation at 10 uM measured at upto 3 days; type: functional, cell-based; settings: time <= 3.0 day
3T3-L1 [9] = experiment: Anti-adipogenic activity in mouse 3T3-L1 cells assessed as reduction in lipid accumulation at 10 uM measured at upto 5 days; type: functional, cell-based; settings: time <= 5.0 day
3T3-L1 [10] = experiment: Anti-adipogenic activity in mouse 3T3-L1 cells assessed as reduction in lipid accumulation at 10 uM measured at upto 7 days; type: functional, cell-based; settings: time <= 7.0 day
3T3-L1 [11] = experiment: Anti-adipogenic activity in mouse 3T3-L1 cells assessed as change in lipid content at 10 uM measured at 5 to 7 days; type: functional, cell-based; settings: time 5-7 day
3T3-L1 [12] = experiment: Inhibition of adipogenesis in mouse 3T3-L1 cells assessed as downregulation of FASN expression at 10 uM measured at upto 3 days by immunoblotting analysis; type: functional, cell-based; settings: time <= 3.0 day
3T3-L1 [13] = experiment: Inhibition of adipogenesis in mouse 3T3-L1 cells assessed as downregulation of FASN expression at 10 uM measured at upto 5 days by immunoblotting analysis; type: functional, cell-based; settings: time <= 5.0 day
3T3-L1 [14] = experiment: Inhibition of adipogenesis in mouse 3T3-L1 cells assessed as downregulation of FASN expression at 10 uM measured at upto 7 days by immunoblotting analysis; type: functional, cell-based; settings: time <= 7.0 day
3T3-L1 [15] = experiment: Inhibition of adipogenesis in mouse 3T3-L1 cells assessed as downregulation of PPARgamma expression at 10 uM measured at upto 3 days by immunoblotting analysis; type: functional, cell-based; settings: time <= 3.0 day
3T3-L1 [16] = experiment: Inhibition of adipogenesis in mouse 3T3-L1 cells assessed as downregulation of CEBPalpha expression at 10 uM measured at upto 3 days by immunoblotting analysis; type: functional, cell-based; settings: time <= 3.0 day
3T3-L1 [17] = experiment: Inhibition of adipogenesis in mouse 3T3-L1 cells assessed as downregulation of CEBPalpha expression at 10 uM measured at upto 5 days by immunoblotting analysis; type: functional, cell-based; settings: time <= 5.0 day
3T3-L1 [18] = experiment: Inhibition of adipogenesis in mouse 3T3-L1 cells assessed as downregulation of CEBPalpha expression at 10 uM measured at upto 7 days by immunoblotting analysis; type: functional, cell-based; settings: time <= 7.0 day
3T3-L1 [19] = experiment: Inhibition of adipogenesis in mouse 3T3-L1 cells assessed as downregulation of FABP4 expression at 10 uM measured at upto 7 days by immunoblotting analysis; type: functional, cell-based; settings: time <= 7.0 day
3T3-L1 [20] = experiment: Inhibition of adipogenesis in mouse 3T3-L1 cells assessed as downregulation of FABP4 expression at 10 uM measured at upto 3 days by immunoblotting analysis; type: functional, cell-based; settings: time <= 3.0 day
3T3-L1 [21] = experiment: Inhibition of adipogenesis in mouse 3T3-L1 cells assessed as downregulation of FABP4 expression at 10 uM measured at upto 5 days by immunoblotting analysis; type: functional, cell-based; settings: time <= 5.0 day
3T3-L1 [22] = experiment: Induction of cell cycle arrest in mouse 3T3-L1 cells assessed as reduction in percentage of cells at G1 phase at 10 uM incubated for 16 to 24 hrs by flow cytometry analysis; type: functional, cell-based; settings: time 16-24 hrs
3T3-L1 [23] = experiment: Induction of cell cycle arrest in mouse 3T3-L1 cells assessed as reduction in number of cells at G1 phase at 10 uM incubated for 16 to 24 hrs by flow cytometry analysis; type: functional, cell-based; settings: time 16-24 hrs
3T3-L1 [24] = experiment: Induction of cell cycle arrest in mouse 3T3-L1 cells assessed as reduction in CDK2 level at 10 uM incubated for 16 to 24 hrs by immunoblotting analysis; type: functional, cell-based; settings: time 16-24 hrs
3T3-L1 [25] = experiment: Induction of cell cycle arrest in mouse 3T3-L1 cells assessed as reduction in CDK4 level at 10 uM incubated for 16 to 24 hrs by immunoblotting analysis; type: functional, cell-based; settings: time 16-24 hrs
3T3-L1 [26] = experiment: Induction of cell cycle arrest in mouse 3T3-L1 cells assessed as reduction in cyclin D1 level at 10 uM incubated for 16 to 24 hrs by immunoblotting analysis; type: functional, cell-based; settings: time 16-24 hrs
3T3-L1 [27] = experiment: Anti-adipogenic activity in mouse 3T3-L1 cells assessed as increase in GATA2 mRNA expression by measuring fold change at 10 uM incubated for 16 to 24 hrs; type: functional; settings: time 16-24 hrs
3T3-L1 [28] = experiment: Anti-adipogenic activity in mouse 3T3-L1 cells assessed as increase in beta-catenin mRNA expression at 10 uM incubated for 16 to 24 hrs; type: functional, cell-based; settings: time 16-24 hrs
3T3-L1 [29] = experiment: Anti-adipogenic activity in mouse 3T3-L1 cells assessed as increase in GSK3beta mRNA expression at 10 uM incubated for 16 to 24 hrs; type: functional, cell-based; settings: time 16-24 hrs
3T3-L1 [30] = experiment: Anti-adipogenic activity in mouse 3T3-L1 cells assessed as reduction in lipid accumulation at 10 uM in presence of FH535 by microscopic analysis; type: functional, cell-based
3T3-L1 [31] = experiment: […] of Wnt/beta-catenin signalling in mouse 3T3-L1 cells assessed as increase in beta-catenin level at 10 uM by immunoblotting analysis; type: cell-based
3T3-L1 [32] = experiment: […] of Wnt/beta-catenin signalling in mouse 3T3-L1 cells assessed as increase in GSK3beta level at 10 uM by immunoblotting analysis; type: cell-based
[33] = Cmax in Golden Syrian hamster at 100 mg/kg, po measured upto 24 hrs by LC-MS/MS analysis; type: ADME, organism-based, Mesocricetus auratus; settings: in vivo
[34] = Tmax in Golden Syrian hamster at 100 mg/kg, po measured upto 24 hrs by LC-MS/MS analysis; type: ADME, organism-based, Mesocricetus auratus; settings: in vivo
[35] = AUC in Golden Syrian hamster at 100 mg/kg, po measured upto 24 hrs by LC-MS/MS analysis; type: ADME, organism-based, Mesocricetus auratus; settings: in vivo
[36] = MRT in Golden Syrian hamster at 100 mg/kg, po measured upto 24 hrs by LC-MS/MS analysis; type: ADME, organism-based, Mesocricetus auratus; settings: in vivo
[37] = Toxicity in Golden Syrian hamster assessed as body weight gain at 100 mg/kg, po administered for 7 days; type: organism-based, Mesocricetus auratus; settings: in vivo, 168 h, time 7 day
Syrian golden hamster = experiment: Anti-dyslipidemic activity in HFD-induced Golden Syrian hamster model assessed as decrease in eWAT accumulation at 100 mg/kg, po administered for 7 days; type: functional, organism-based; settings: Mesocricetus auratus, time 7.0 day
[38] = Toxicity in Golden Syrian hamster assessed as reduction in liver weight at 100 mg/kg, po administered for 7 days; type: organism-based, Mesocricetus auratus; settings: in vivo, 168 h, time 7 day
[39] = Toxicity in Golden Syrian hamster assessed as reduction in TG level in serum at 100 mg/kg, po administered for 7 days; type: organism-based, Mesocricetus auratus; settings: in vivo, 168 h, time 7 day
[40] = Toxicity in Golden Syrian hamster assessed as reduction in TC level in serum at 100 mg/kg, po administered for 7 days; type: organism-based, Mesocricetus auratus; settings: in vivo, 168 h, time 7 day

Cmax [33]: 17700 ng/mL
Tmax [34]: 0.25 h
AUC at 24 h [35]: 35700 ng·h/mL
MRT [36]: 2.89 h
SMILES: Cc1ccc(/C=C/c2ccc(-c3cc(C(=O)O)c4cc(F)ccc4n3)cc2)cc1
Activity (3T3-L1 [1]): 64%
Activity (3T3-L1 [2]): 70%
Activity (3T3-L1 [3]): Non-toxic
Activity (3T3-L1 [4]): Non-toxic
Activity (3T3-L1 [5]): Toxic
Activity (3T3-L1 [6]): Active
inhibition at 10 µM (3T3-L1 [7]): ~50%
Activity (3T3-L1 [8]): Active
Activity (3T3-L1 [9]): Active
Activity (3T3-L1 [10]): Active
Activity (3T3-L1 [11]): Active
inhibition (3T3-L1 [12]): Active
inhibition (3T3-L1 [13]): Active
inhibition (3T3-L1 [14]): Active
inhibition (3T3-L1 [15]): Active
inhibition (3T3-L1 [16]): Active
inhibition (3T3-L1 [17]): Active
inhibition (3T3-L1 [18]): Active
inhibition (3T3-L1 [19]): Active
inhibition (3T3-L1 [20]): Active
inhibition (3T3-L1 [21]): Active
Activity (3T3-L1 [22]): Active
Activity (3T3-L1 [23]): Active
Activity (3T3-L1 [24]): Active
Activity (3T3-L1 [25]): Active
Activity (3T3-L1 [26]): Active
fold change (FC) (3T3-L1 [27]): 10
Activity (3T3-L1 [28]): Active
Activity (3T3-L1 [29]): Active
Activity (3T3-L1 [30]): Active
inhibition (3T3-L1 [31]): Active
inhibition (3T3-L1 [32]): Active
Activity [37]: Non-toxic
Activity (Syrian golden hamster): Active
Activity [38]: Non-toxic
Activity [39]: Non-toxic
Activity [40]: Non-toxic
